Experimental data published in patent publication US20220339178A1, “COMPOSITIONS AND METHODS FOR COGNITIVE PROTECTION OF POLLINATORS AGAINST PESTICIDES” (priority 2019, published 2022).

Experiments:
[1] = system: Honeybees (Apis mellifera scutellata); experiment: Classical conditioning of the proboscis extension response (PER): learning, 24 h memory retention, latency; flavonoids vs imidacloprid; assay type: in vivo
Protocol: Honeybees (Apis mellifera scutellata) were captured from established hives at the Apiary of the Pontificia Universidad Javeriana (Bogota, Colombia). Foragers were collected while leaving to forage between 8:00 am and 10:00 am (Matsumoto et al., J Neurosci Methods. 211(1):159-67. 2012). Bees were maintained in individual plastic chambers under laboratory conditions (photoperiod followed seasonal pattern; relative humidity: 63%; temperature: 18° C.). Food was provided once a day in a volume of 20 μL and varied in composition according to experimental treatments.
Control (2M sugar water): fed once a day (20 μL) for three consecutive days;
Quercetin (6.6 mM quercetin (Sigma-Aldrich: Q4951)-sucrose-water with DMSO 1% (Sigma-Aldrich: D8418): fed once a day for three days;
Rutin (1 mM rutin (Sigma-Aldrich R5143)-sucrose-water with DMSO 1%: fed once a day for three days;
Imidacloprid (1.16 nM Imidacloprid (Bayer)-sucrose-water: fed as a single dose (20 μL) 1.5 h before training;
Quercetin-Imidacloprid: bees received the quercetin treatment (see above) and were fed Imidacloprid 1.5 h before training; and
Rutin-Imidacloprid: bees received the rutin treatment (see above) and were fed Imidacloprid 1.5 h before training.
Bees were trained using classical conditioning of the proboscis extension response (PER), a broadly used method to study learning and memory in bees. Briefly, bees received a soft current of clean air for 15 seconds to allow bees to accommodate. Then a soft current of 1-hexanol (Sigma-Aldrich: 471402) was injected for 10 seconds. Six seconds after injection of 1-hexanol, one of the antennae was stimulated with sucrose water (50% w/w), which leads to the reflexive extension of the proboscis, and the bee was allowed to drink for 4 seconds. Thus, the reward and the stimulus overlapped for four seconds. This sequence, recognized as a training trial, was repeated eight times. Time was determined using a metronome (2 Hz). Memory retention was tested 24 hours after the eight training trials. […] 12 bees were trained each session. Training was conducted by an experimenter blind to treatment.
Learning was assessed from the total number of conditioned responses across the eight trials. Thus, each bee received a learning score between 0-7 (by definition, bees cannot show a learned response at the first trial). After 24 h, memory retention was assessed as the response to the presentation of 1-hexanol without a sucrose reward. Latency of response was quantified as the time between the onset of 1-hexanol stimulation and the onset of a response that led to a full extension of proboscis. Only bees being responsive to sucrose water across all training trials and the memory retention test were considered for analyses. Learning scores were compared across treatments using a Mann-Whitney test as data were not normally distributed (Shapiro-Wilk W test for the hypothesis that the data is from a Normal distribution: P<0.05 for all treatments). Comparisons of the learning score of bees across all treatments relative to Control bees were conducted using the Steel method adjusted as one or two-tailed tests. Additional post hoc comparisons were performed between Imid and Quer+Imid bees and between Imid and Rut+Imid bees. Memory retention was compared across groups using an overall Chi-Square test and independent tests for planned comparisons were performed using adjusted Wald tests for proportions. In all cases error due to multiple comparisons was controlled using the False Discovery Rate one stage method and adjusted p-values (q-values) are presented (Benjamini & Hochberg, Journal of the Royal Statistical Society. Series B (Methodological), 57(1):289-300. 1995; Pike, N., Methods in Ecology and Evolution, 2(3):278-282. 2011). All analyses were conducted using JMP v.14.0 (SAS Institute Inc). […]

AChE = settings: literature report; cited from earlier work
[2] = system: butyrylcholinesterase (BChE); settings: literature report; cited from earlier work

Row | SMILES | memory retention, proportion difference relative to Control bees (Adjusted Wald test) ([1]; conditioned PER after 24 h) | latency of response during learning acquisition relative to Control bees ([1]; honey bees) | learning scores relative to bees in the Imid group ([1]; honey bees prophylactically fed flavonoid for three days, then imidacloprid 1.5 h before training) | learning scores relative to Control bees ([1]; honey bees, 8 trials, score 0-7, quercetin 6.6 mM or rutin 1 mM once a day for three days, imidacloprid 1.16 nM 20 μL 1.5 h before training) | inhibition of AChE (AChE) | inhibition of butyrylcholinesterase (BChE) [2]
1 | O=c1c(O)c(-c2ccc(O)c(O)c2)oc2cc(O)cc(O)c12 [Quercetin] | −0.13 | not significantly different from Control | significantly higher learning scores | significantly higher learning scores | concentration-dependent inhibition ability | concentration-dependent inhibition ability
2 | C=CC(C)(C)c1c2c(c(O)c3c(=O)c4ccc(O)c(O)c4oc13)C=CC(C)(C)O2 [macluraxanthone] |  |  |  |  | concentration-dependent inhibition ability | concentration-dependent inhibition ability
